The supplement of paper PMC10307832

Experiments:
Test in all cases: relative viability (nuclei count vs DMSO), 5 days (fraction); higher = more cells survive
Venetoclax + Palbociclib = compound: CC1(C)CCC(CN2CCN(c3ccc(C(=O)NS(=O)(=O)c4ccc(NCC5CCOCC5)c([N+](=O)[O-])c4)c(Oc4cnc5[nH]ccc5c4)c3)CC2)=C(c2ccc(Cl)cc2)C1 [Venetoclax] + CC(=O)c1c(C)c2cnc(Nc3ccc(N4CCNCC4)cn3)nc2n(C2CCCC2)c1=O [Palbociclib] (partner 0.5 µM)
How it was run: (§1)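 Five library-drug doses in √10 steps were combined with a fixed anchor-drug dose, or a single drug was given alone, by pin tool to lung cancer cell lines in 1536-well plates the day after seeding. Nuclei were stained and counted after 5 days. Relative viability is the nuclei count in treated wells over that in vehicle wells, taken as the median of duplicate plates.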

Venetoclax + AZD7762 = compound: CC1(C)CCC(CN2CCN(c3ccc(C(=O)NS(=O)(=O)c4ccc(NCC5CCOCC5)c([N+](=O)[O-])c4)c(Oc4cnc5[nH]ccc5c4)c3)CC2)=C(c2ccc(Cl)cc2)C1 [Venetoclax] + NC(=O)Nc1cc(-c2cccc(F)c2)sc1C(=O)N[C@H]1CCCNC1 [AZD7762] (partner 0.2 µM)
How it was run: as §1

Selumetinib + Crizotinib = compound: Cn1cnc2c(F)c(Nc3ccc(Br)cc3Cl)c(C(=O)NOCCO)cc21 [Selumetinib] + C[C@@H](Oc1cc(-c2cnn(C3CCNCC3)c2)cnc1N)c1c(Cl)ccc(F)c1Cl [Crizotinib] (partner 1 µM)
How it was run: as §1

Selumetinib + Decitabine = compound: Cn1cnc2c(F)c(Nc3ccc(Br)cc3Cl)c(C(=O)NOCCO)cc21 [Selumetinib] + Nc1ncn([C@H]2C[C@H](O)[C@@H](CO)O2)c(=O)n1 [Decitabine] (partner 2 µM)
How it was run: as §1

Row | Cell Line | relative viability (Venetoclax + Palbociclib; first compound 0.01 µM) | relative viability (Venetoclax + Palbociclib; first compound 0.03162 µM) | relative viability (Venetoclax + Palbociclib; first compound 0.1 µM) | relative viability (Venetoclax + Palbociclib; first compound 0.3162 µM) | relative viability (Venetoclax + Palbociclib; first compound 1 µM) | relative viability (Venetoclax + AZD7762; first compound 0.01 µM) | relative viability (Venetoclax + AZD7762; first compound 0.03162 µM) | relative viability (Venetoclax + AZD7762; first compound 0.1 µM) | relative viability (Venetoclax + AZD7762; first compound 0.3162 µM) | relative viability (Venetoclax + AZD7762; first compound 1 µM) | relative viability (Selumetinib + Crizotinib; first compound 0.02 µM) | relative viability (Selumetinib + Crizotinib; first compound 0.06325 µM) | relative viability (Selumetinib + Crizotinib; first compound 0.2 µM) | relative viability (Selumetinib + Crizotinib; first compound 0.6325 µM) | relative viability (Selumetinib + Decitabine; first compound 0.02 µM) | relative viability (Selumetinib + Decitabine; first compound 0.06325 µM) | relative viability (Selumetinib + Decitabine; first compound 0.2 µM) | relative viability (Selumetinib + Decitabine; first compound 0.6325 µM)
1 | NCI-H358 | 0.131 | 0.114 | 0.13 | 0.13 | 0.131 | 0.338 | 0.527 | 0.556 | 0.714 | 0.558 | 0.467 | 0.368 | 0.326 | 0.319 | 0.194 | 0.181 | 0.193 | 0.158
2 | H3255 | 0.34 | 0.316 | 0.315 | 0.33 | 0.296 | 0.875 | 0.999 | 0.944 | 0.901 | 0.782 | 0.879 | 0.96 | 0.88 | 0.802 | 0.647 | 0.649 | 0.557 | 0.614
3 | NCI-H1651 | 0.529 | 0.537 | 0.536 | 0.545 | 0.528 | 0.505 | 0.481 | 0.486 | 0.428 | 0.386 | 0.973 | 0.8 | 0.821 | 0.766 | 0.626 | 0.531 | 0.644 | 0.701
4 | NCI-H23 | 0.514 | 0.598 | 0.495 | 0.491 | 0.413 | 0.198 | 0.268 | 0.279 | 0.262 | 0.199 | 0.583 | 0.47 | 0.328 | 0.406 | 0.324 | 0.268 | 0.319 | 0.302
5 | NCI-H1355 | 0.428 | 0.387 | 0.404 | 0.424 | 0.356 | 0.723 | 0.733 | 0.705 | 0.716 | 0.652 | 1.06 | 1.1 | 0.796 | 0.681 | 0.385 | 0.357 | 0.377 | 0.329
6 | NCI-H2085 | 0.441 | 0.471 | 0.486 | 0.454 | 0.47 | 0.802 | 1.02 | 0.924 | 0.962 | 0.916 | 0.889 | 0.89 | 0.822 | 0.704 | 0.524 | 0.593 | 0.537 | 0.544
7 | NCI-H322M | 0.489 | 0.487 | 0.389 | 0.412 | 0.485 | 0.606 | 0.608 | 0.424 | 0.591 | 0.649 | 0.708 | 0.807 | 0.796 | 0.828 | 0.722 | 0.71 | 0.598 | 0.548
8 | NCI-H1915 | 0.477 | 0.558 | 0.541 | 0.524 | 0.495 | 0.657 | 0.658 | 0.655 | 0.695 | 0.611 | 0.876 | 0.849 | 0.677 | 0.467 | 0.28 | 0.263 | 0.239 | 0.246
9 | HCC-827 | 0.526 | 0.627 | 0.463 | 0.442 | 0.534 | 0.27 | 0.258 | 0.302 | 0.224 | 0.183 | 0.945 | 0.913 | 0.869 | 0.83 | 0.362 | 0.317 | 0.351 | 0.448
